Patent US9790221B2, “Heteroaryl compounds as IRAK inhibitors and uses thereof” (Merck Patent GmbH, priority 2014, dated 2017)

How the values were obtained:
IRAK4 = IRAK4 (Homo sapiens (Human), UniProt Q9NWZ3); experiment: IRAK4 enzymatic assay; format: biochemical
Experimental: IRAK4 is a human purified recombinant enzyme ([…]. IRAK4 hydrolyses ATP, autophosphorylates and phosphorylates a Serine/Threonine generic peptidic substrate (STK: 61ST1BLC from CisBio International based in Bagnols/Cèze FR).
Measurement of IRAK-4 inhibition was performed in streptavidin coated 384well FlashPlate (PerkinElmer #SMP410A). His-TEV-IRAK4 (20 ng/well), ATP (2 μM, [^33P]ATP 0.25 µCi/well), STK1-biotin peptide (300 nM) and compounds in DMSO (range of concentrations from 20 µM to 1 nM) or controls (2% DMSO) were incubated for 3 hours at 30° C. in assay buffer: Hepes pH7.0 50 mM, Fatty acid-free BSA 0.1%, Dithiothreitol DTT 2 mM, MgCl2 10 mM, EGTA 0.5 mM, Tween-20 0.01%, MnCl2 5 mM.
Kinase reaction was stopped by addition of EDTA. Supernatant was discarded, plates were washed three times with 150 mM NaCl and radioactivity was then measured in a Microbeta Trilux reader.

[1] = molecular target: IRAK1 (His-TEV-IRAK1 (194-712)) (Homo sapiens (Human), UniProt P51617); experiment: IRAK1 enzymatic assay; format: biochemical
Experimental: IRAK1 is a human purified recombinant enzyme (His-TEV-IRAK1 (194-712)). In this assay, IRAK-1 hydrolyses ATP and autophosphorylates. Measurement of IRAK-1 inhibition was performed in streptavidin coated 384well FlashPlate (PerkinElmer #SMP410A).
His-TEV-IRAK-1 (15 ng/well), ATP (1 μM, [33P]ATP 0.25 μCi/well) and compounds in DMSO (range of concentrations from 20 µM to 1 nM) or controls (2% DMSO) were incubated for 3 hours at 30° C. in assay buffer: Hepes pH7.0 50 mM, Fatty acid-free BSA 0.1%, Dithiothreitol DTT 2 mM, MgCl2 10 mM, EGTA 0.5 mM, Triton-X-100 0.01%. Kinase reaction was stopped by addition of EDTA. Supernatant was discarded, plates were washed three times with 150 mM NaCl and radioactivity was then measured in a Microbeta Trilux reader.

IRAK4, sequence (Q9NWZ3 whole entry): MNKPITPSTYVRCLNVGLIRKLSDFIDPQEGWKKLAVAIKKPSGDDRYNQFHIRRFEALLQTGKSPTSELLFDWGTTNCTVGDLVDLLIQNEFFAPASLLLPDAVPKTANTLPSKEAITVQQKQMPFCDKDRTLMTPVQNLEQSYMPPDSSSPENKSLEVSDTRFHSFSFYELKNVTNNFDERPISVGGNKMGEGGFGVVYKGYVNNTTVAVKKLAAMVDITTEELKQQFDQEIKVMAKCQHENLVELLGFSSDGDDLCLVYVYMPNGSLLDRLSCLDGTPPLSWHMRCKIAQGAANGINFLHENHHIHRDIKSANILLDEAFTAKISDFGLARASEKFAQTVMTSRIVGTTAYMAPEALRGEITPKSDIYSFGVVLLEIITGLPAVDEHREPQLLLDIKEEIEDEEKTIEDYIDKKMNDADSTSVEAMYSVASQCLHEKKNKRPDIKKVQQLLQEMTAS
IRAK1 (His-TEV-IRAK1 (194-712)), sequence (P51617 194-712): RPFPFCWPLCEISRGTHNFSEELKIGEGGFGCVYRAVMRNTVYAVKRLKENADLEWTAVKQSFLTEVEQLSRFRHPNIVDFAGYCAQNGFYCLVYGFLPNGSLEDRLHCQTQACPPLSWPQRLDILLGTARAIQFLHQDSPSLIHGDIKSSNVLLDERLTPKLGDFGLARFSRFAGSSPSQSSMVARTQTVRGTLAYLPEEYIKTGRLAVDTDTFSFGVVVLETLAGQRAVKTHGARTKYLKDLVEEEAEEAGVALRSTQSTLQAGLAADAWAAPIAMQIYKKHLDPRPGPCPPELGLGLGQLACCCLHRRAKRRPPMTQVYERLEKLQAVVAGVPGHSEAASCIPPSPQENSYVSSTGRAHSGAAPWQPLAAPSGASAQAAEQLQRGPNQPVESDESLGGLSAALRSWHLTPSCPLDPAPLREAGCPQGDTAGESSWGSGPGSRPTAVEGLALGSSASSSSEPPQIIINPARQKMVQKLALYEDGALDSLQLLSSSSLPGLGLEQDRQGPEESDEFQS

Structure (SMILES)	IC50 (IRAK4) [µM]	IC50 [1] [µM]
CC(=O)NCCNc1nc(-c2cccc(-c3cnn(C)c3)c2)ncc1-c1ccn(C)n1 [Example 73]	1 to 5	1 to 5
Cn1cc(-c2cccc(-c3ncc(-c4ccn(C)n4)c(NCC4CCNC(=O)C4)n3)c2)cn1 (stereo not drawn) [Example 74]	0.1 to 1	1 to 5
Cn1cc(-c2cccc(-c3ncc(-c4ccn(C)n4)c(NCCCN4CCOCC4)n3)c2)cn1 [Example 75]	> 5	> 5
Cn1cc(-c2cccc(-c3ncc(-c4cnn(C)c4)c(NCCCN4CCOC4=O)n3)c2)cn1 [Example 78]	0.1 to 1	1 to 5
Cn1cc(-c2cccc(-c3ncc(-c4ccn(C)n4)c(N[C@H]4C[C@@H](S(C)(=O)=O)C4)n3)c2)cn1 [Example 79]	0.1 to 1	0.1 to 1
Cn1cc(-c2cccc(-c3ncc(-c4ccn(C)n4)c(NC4CC(F)C4)n3)c2)cn1 (stereo not drawn) [Example 80]	0.1 to 1	> 5
Cn1cc(-c2cccc(-c3ncc(-c4ccn(C)n4)c(NC4CC(O)C4)n3)c2)cn1 (stereo not drawn) [Example 82]	0.1 to 1	1 to 5
Cn1cc(-c2cccc(-c3ncc(-c4cnn(C)c4)c(NCCCCN)n3)c2)cn1 [Example 88]	0.1 to 1	> 5
Cn1cc(-c2cccc(-c3ncc(-c4cnn(C)c4)c(NCCCN)n3)c2)cn1 [Example 89]	1 to 5	> 5
Cn1cc(-c2cccc(-c3ncc(-c4ccn(C)n4)c(NC4CC(F)(F)C4)n3)c2)cn1 [Example 90]	> 5	> 5
Cn1cc(-c2cccc(-c3ncc(-c4ccn(C)n4)c(NCCN4CCOC4=O)n3)c2)cn1 [Example 91]	> 5	> 5
Cn1cc(-c2cccc(-c3ncc(-c4cnn(C)c4)c(NC4(CO)COC4)n3)c2)cn1 [Example 92]	> 5	> 5
Cn1cc(-c2cccc(-c3ncc(-c4cnn(C)c4)c(NCCO)n3)c2)cn1 [Example 96]	< 0.1	1 to 5
Cn1cc(-c2cccc(-c3ncc(-c4ccn(C)n4)c(NC4CC5(CC(N)C5)C4)n3)c2)cn1 (stereo not drawn) [Example 98]	0.1 to 1	1 to 5
Cn1cc(-c2cccc(-c3ncc(-c4ccn(C)n4)c(NCCO)n3)c2)cn1 [Example 100]	0.1 to 1	1 to 5
Cn1cc(-c2cccc(-c3ncc(-c4ccn(C)n4)c(NC4CCC(=O)NC4)n3)c2)cn1 (stereo not drawn) [Example 102]	0.1 to 1	1 to 5
Cn1cc(-c2cccc(-c3ncc(-c4cnn(C)c4)c(NC4CCC(=O)NC4)n3)c2)cn1 (stereo not drawn) [Example 103]	< 0.1	1 to 5
Cn1cc(-c2cccc(-c3ncc(-c4ccn(C)n4)c(NC[C@H]4CCNC4)n3)c2)cn1 [Example 104]	0.1 to 1	1 to 5
CN1CCOC(CNc2nc(-c3cccc(-c4cnn(C)c4)c3)ncc2-c2cnn(C)c2)C1 (stereo not drawn) [Example 105]	0.1 to 1	> 5
Cn1cc(-c2cccc(-c3ncc(-c4nnc(C(=O)N5CC[C@@H](O)C5)s4)c(NCC4CNC4)n3)c2)cn1 [Example 106]	< 0.1	> 5
CC(=O)NCCCNc1nc(-c2cccc(-c3cnn(C)c3)c2)ncc1-c1cnn(C)c1 [Example 109]	0.1 to 1	> 5
Cn1cc(-c2cccc(-c3ncc(-c4cnn(C)c4)c(NCCN4CCC(O)CC4)n3)c2)cn1 [Example 110]	1 to 5	> 5
Cn1cc(-c2cccc(-c3ncc(-c4ccn(C)n4)c(N[C@H]4CC[C@@H](N)CC4)n3)c2)cn1 [Example 111]	< 0.1	0.1 to 1
Cn1cc(-c2cccc(-c3ncc(-c4ccn(C)n4)c(NCC4(O)CCNCC4(C)C)n3)c2)cn1 (stereo not drawn) [Example 114]	0.1 to 1	1 to 5
Cn1cc(-c2cccc(-c3ncc(-c4ccn(C)n4)c(N[C@H]4CCNC4)n3)c2)cn1 [Example 117]	0.1 to 1	> 5
Cn1cc(-c2cccc(-c3ncc(-c4ccn(C)n4)c(NC[C@H](O)CO)n3)c2)cn1 [Example 120]	0.1 to 1	0.1 to 1
Cn1cc(-c2cccc(-c3ncc(-c4cnn(C)c4)c(N[C@H]4CCNC4)n3)c2)cn1 [Example 121]	0.1 to 1	> 5

Structure (SMILES)	IC50 (IRAK4) [µM]	IC50 [1] [µM]
Cn1cc(-c2cccc(-c3ncc(-c4ccn(C)n4)c(NCC4CCCC(O)C4)n3)c2)cn1 (stereo not drawn) [Example 122]	0.1 to 1	> 5
Cn1cc(-c2cccc(-c3ncc(-c4ccn(C)n4)c(N[C@H]4C[C@@H](N)C4)n3)c2)cn1 [Example 124]	0.1 to 1	> 5
Cn1cc(-c2cccc(-c3ncc(-c4cnn(C)c4)c(N[C@@H]4CNC[C@@H](F)C4)n3)c2)cn1 [Example 130]	0.1 to 1	1 to 5
Cn1cc(-c2cccc(-c3ncc(-c4cnn(C)c4)c(NCCCC(C)(C)O)n3)c2)cn1 [Example 139]	0.1 to 1	0.1 to 1
Cn1cc(-c2cccc(-c3ncc(-c4ccn(C)n4)c(NCCCC(C)(C)O)n3)c2)cn1 [Example 140]	0.1 to 1	1 to 5
CN(CC1CC(F)(F)C1)c1nc(-c2cccc(-c3cnn(C)c3)c2)ncc1-c1ccn(C)n1 [Example 142]	1 to 5	> 5
Cn1cc(-c2cccc(-c3ncc(-c4ccn(C)n4)c(NCC4CCNC4)n3)c2)cn1 (stereo not drawn) [Example 144]	0.1 to 1	> 5
Cn1cc(-c2cccc(-c3ncc(-c4cnn(C)c4)c(NCC4CCNC4)n3)c2)cn1 (stereo not drawn) [Example 145]	0.1 to 1	> 5
Cn1cc(-c2cccc(-c3ncc(-c4ccn(C)n4)c(N[C@H]4CC[C@H](O)CC4)n3)c2)cn1 [Example 147]	< 0.1	> 5
Cn1cc(-c2cccc(-c3ncc(-c4cnn(C)c4)c(N4CCNCC4)n3)c2)cn1 [Example 148]	0.1 to 1	> 5
Cn1cc(-c2cccc(-c3ncc(-c4cnn(C)c4)c(NC4CCC5CNCC54)n3)c2)cn1 (stereo not drawn) [Example 150]	0.1 to 1	> 5
Cn1cc(-c2cccc(-c3ncc(-c4ccn(C)n4)c(NC4CCC5CNCC54)n3)c2)cn1 (stereo not drawn) [Example 154]	0.1 to 1	> 5
Cn1cc(-c2cccc(-c3ncc(-c4cnn(C)c4)c(NC[C@H]4CC[C@@H](O)CC4)n3)c2)cn1 [Example 155]	< 0.1	> 5
Cn1cc(-c2cccc(-c3ncc(-c4cnn(C)c4)c(NCC4CC4)n3)c2)cn1 [Example 157]	< 0.1	0.1 to 1
Cn1cc(-c2cccc(-c3ncc(-c4cnn(C)c4)c(NCC4CCN(S(C)(=O)=O)C4)n3)c2)cn1 (stereo not drawn) [Example 158]	< 0.1	0.1 to 1
Cn1cc(-c2cccc(-c3ncc(-c4cnn(C)c4)c(NC4C5CCCC4CC(NS(C)(=O)=O)C5)n3)c2)cn1 (stereo not drawn) [Example 159]	< 0.1	> 5
Cn1cc(-c2cccc(-c3ncc(-c4cnn(C)c4)c(NC4CC5(C4)CC(NS(C)(=O)=O)C5)n3)c2)cn1 (stereo not drawn) [Example 160]	< 0.1	0.1 to 1
Cn1cc(-c2cccc(-c3ncc(-c4cnn(C)c4)c(NCC4CCC4)n3)c2)cn1 [Example 163]	< 0.1	0.1 to 1
Cn1cc(-c2cccc(-c3ncc(-c4cnn(C)c4)c(NC4CCC5CN(S(C)(=O)=O)CC54)n3)c2)cn1 (stereo not drawn) [Example 168]	< 0.1	> 5
Cn1cc(-c2cccc(-c3ncc(-c4cnn(C)c4)c(NCC4CN(S(C)(=O)=O)CCO4)n3)c2)cn1 (stereo not drawn) [Example 172]	< 0.1	0.1 to 1
Cn1cc(-c2cccc(-c3ncc(-c4cnn(C)c4)c(NCC4[C@H]5CN(S(C)(=O)=O)C[C@@H]45)n3)c2)cn1 (stereo partly drawn) [Example 173]	0.1 to 1	> 5
Cn1cc(-c2cccc(-c3ncc(-c4cnn(C)c4)c(NC[C@H]4CCN(S(C)(=O)=O)C4)n3)c2)cn1 [Example 174]	< 0.1	0.1 to 1
Cn1cc(-c2cccc(-c3ncc(-c4cnn(C)c4)c(NCCC4CCN(S(C)(=O)=O)C4)n3)c2)cn1 (stereo not drawn) [Example 175]	0.1 to 1	0.1 to 1
Cn1cc(-c2cccc(-c3ncc(-c4cnn(C)c4)c(NCCCCNS(C)(=O)=O)n3)c2)cn1 [Example 177]	< 0.1	0.1 to 1
Cn1cc(-c2cccc(-c3ncc(-c4cnn(C)c4)c(NC4CCCCN(S(C)(=O)=O)C4)n3)c2)cn1 (stereo not drawn) [Example 178]	0.1 to 1	0.1 to 1
Cn1cc(-c2cccc(-c3ncc(-c4cnn(C)c4)c(NC4CC(CO)(CO)C4)n3)c2)cn1 [Example 180]	< 0.1	0.1 to 1
Cn1cc(-c2cccc(-c3ncc(-c4cnn(C)c4)c(NC4CC5CC4N(S(C)(=O)=O)C5)n3)c2)cn1 (stereo not drawn) [Example 189]	> 5	> 5
